Test results taken from PMC10903983, “Inducing mitochondriopathy-like damages by transformable nucleopeptide nanoparticles for targeted therapy of bladder cancer” (National Science Review, 2024).
Non-standard residues stand in square brackets, D forms with d. Residues, ends and D or L forms follow the SMILES beside them. *: point of attachment. Coumarin3carbonyl(7-OH) = O=C(c1cc2ccc(O)cc2oc1=O)*; Acetyl(thymin-1-yl) = Cc1cn(CC(=O)*)c(=O)[nH]c1=O; PEG8 = NCCOCCOCCOCCOCCOCCOCCOCCOCCC(=O)O

Assays:
T24 cells = assay: CCK-8 cytotoxicity assay, T24 cells; type: cell-based, human; conditions: 48 h; for IC50: human
RT-112 cells = type: cell-based; conditions: human, 48 h
EJ cells = type: cell-based; conditions: human, 48 h
[1] = ATP sequestration: ATP hydrolysis by alkaline phosphatase (ALP); type: biochemical; conditions: ATP 200 μM, ALP 0.5 U/mL, DEA buffer 10 mM pH 9.8, 37 °C, bioluminescence, blank control 13%
T24 xenograft mice [2] = assay: In vivo / ex vivo dose-dependent fluorescence imaging in T24 xenograft mice; conditions: i.v., 500 μM or 250 μM in 200 μL PBS, 1-96 hours, N = 3
T24 xenograft mice [3] = assay: In vivo antitumor evaluation, T24 subcutaneous xenograft model; conditions: i.v. 500 μM in 200 μL PBS six times
Method: 3 mm at 8 h post-treatment. The fragments were then fixed with 2.5% glutaraldehyde at 4°C overnight and treated with 1% […] for 2 h after being rinsed thrice with PBS.
Subsequently, graded concentrations of alcohol solutions (50, 70, 80, 90, 100, 100 and 100%) were utilized for graded dehydration (with 10 minutes each). Next, tumor fragments were exposed to a mixture of alcohol/acetone (1:1) for 10 min, a mixture of acetone/EPON-812 (1:1) for 1 h and a mixture of acetone/EPON-812 (1:2) for 1 h. Pure EPON-812 was then utilized to further infiltrate the tumor fragments overnight at 4°C, after which it was cured at 37, 45 and 60°C for 24 h respectively. Finally, the morphology of NLS-FF-T in the tumor slice was observed by bio-Transmission Electron Microscope (bio-TEM) after being stained with 2% uranyl acetate and 3% lead citrate.
To further verify the therapeutic potency of the IAS system, a T24 xenograft mouse […]
When the average tumor volume reached 100-200 mm3, the T24 tumor-bearing mice were […]
The individual tumor growth and body weight were measured every 2 d for analysis, with tumor volume calculated as follows: tumor width2 × tumor length × 0.5. […]
At the end of the treatment period, T24 tumor tissues were collected and washed thrice with PBS. […] The ATP levels were then measured according to the manufacturer’s instructions using an ATP Content Assay Kit. […]

[4] = tested on: T24 xenograft mice (incomplete tumor resection); conditions: after intravenous administration, tumor-recurrence model
Method: In vivo antitumor evaluation of IAS system in regrowth of residual tumor model
To establish the T24 xenograft mouse model, BALB/c nude mice (approximately 6-8
weeks, weighing 16-18 g) were subcutaneously injected with T24 cells (5 × 106) suspended
in 100 μL Matrigel. The mice were randomly divided into five groups, with six mice in each
group. Both body weight and tumor volume were measured for analysis. At 21 d after
inoculation, tumor tissues of approximately 300-500 mm3 were resected, leaving a residual
tumor of approximately 30-50 mm3. After that, the T24 xenograft mice were intravenously
administered with PBS, NLS-FF, FF-T, NLS-T and NLS-FF-T (500 μM in 200 μL PBS)
every two days on day 21, 23, 25, 27, 29 and 31. The tumor volume was calculated using the formula: tumor width2 × tumor length × 0.5.
For two-group comparisons, statistical analysis was performed using one-way ANOVA
followed by post hoc Tukey's test. The GraphPad Prism software 8.0 was used for all

SV-HUC-1 cells = assay: Toxicity assay towards SV-HUC-1 normal bladder cells; type: cell-based; conditions: viability, different concentrations, 48 h
healthy BALB/c nude mice = assay: In vivo toxicology evaluation in healthy mice; conditions: N = 4
[5] = i.v. 1000, 500 or 250 μM in 200 μL PBS six times

Row | SMILES | IC50 (T24 cells) | IC50 (RT-112 cells) | IC50 (EJ cells) | ATP remaining after ALP catalytic hydrolysis ([1]; NLS-FF-T nanofibers) | ATP remaining after ALP catalytic hydrolysis ([1]; NLS-FF-T nanoparticle group) | tumor accumulation and retention (in vivo fluorescence imaging) (T24 xenograft mice [2]) | body weight (T24 xenograft mice [3]) | cytotoxicity against T24 cells compared with T-ATP (T24 cells; viability, different concentrations) | body weights [4] | toxicity towards T24 tumor cells versus SV-HUC-1 normal bladder cells (SV-HUC-1 cells) | histology (H&E) of liver and kidney (healthy BALB/c nude mice; i.v. 1000, 500 or 250 μM in 200 μL PBS six times at 2-day intervals) | blood biochemistry (ALT, AST, ALP, BUN, CRE) (healthy BALB/c nude mice; [5]) | routine blood examination (RBC, WBC, PLT, HGB, NEUT) versus PBS (healthy BALB/c nude mice; [5])
1 | CC(C)C[C@H](NC(=O)[C@H](CCCCN)NC(=O)c1cc2ccc(O)cc2oc1=O)C(=O)N[C@H](C(=O)N[C@@H](Cc1ccccc1)C(=O)N[C@@H](Cc1ccccc1)C(=O)NCCOCCOCCOCCOCCOCCOCCOCCOCCC(=O)N[C@H](C(=O)N[C@@H](CCCCN)C(=O)N[C@@H](CCCNC(=N)N)C(=O)N[C@@H](CCCCN)C(=O)N[C@@H](CCCCN)C(=O)N[C@@H](CCCCN)C(=O)N1CCC[C@H]1C(=O)O)C(C)C)C(C)C [NLS-FF, HCA-KLVFF-PEG-VKRKKKP] ({Coumarin3carbonyl(7-OH)}-KLVFF[PEG8]VKRKKKP-OH) | 532 µM | 376 µM | 278 µM |  |  |  |  |  |  |  |  |  | 
2 | Cc1cn(CC(=O)NCCCC[C@H](NC(=O)c2cc3ccc(O)cc3oc2=O)C(=O)N[C@@H](CC(C)C)C(=O)N[C@H](C(=O)N[C@@H](Cc2ccccc2)C(=O)N[C@@H](Cc2ccccc2)C(=O)NCCOCCOCCOCCOCCOCCOCCOCCOCCC(=O)NCCOCCOCCOCCOCCOCCOCCOCCOCCC(=O)O)C(C)C)c(=O)[nH]c1=O [FF-T, HCA-K(T)LVFF-PEG2] ({Coumarin3carbonyl(7-OH)}-K(Acetyl(thymin-1-yl))LVFF[PEG8][PEG8]-OH) | 408 µM | 356 µM | 181 µM |  |  |  |  |  |  |  |  |  | 
3 | Cc1cn(CC(=O)NCCCC[C@H](NC(=O)c2cc3ccc(O)cc3oc2=O)C(=O)N[C@@H](CC(C)C)C(=O)N[C@H](C(=O)N[C@@H](Cc2ccccc2)C(=O)N[C@@H](Cc2ccccc2)C(=O)NCCOCCOCCOCCOCCOCCOCCOCCOCCC(=O)N[C@H](C(=O)N[C@@H](CCCCN)C(=O)N[C@@H](CCCNC(=N)N)C(=O)N[C@@H](CCCCN)C(=O)N[C@@H](CCCCN)C(=O)N[C@@H](CCCCN)C(=O)N2CCC[C@H]2C(=O)O)C(C)C)C(C)C)c(=O)[nH]c1=O [NLS-FF-T, HCA-K(T)LVFF-PEG-VKRKKKP] ({Coumarin3carbonyl(7-OH)}-K(Acetyl(thymin-1-yl))LVFF[PEG8]VKRKKKP-OH) | 34 µM | 43.3 µM | 32 µM | 61% | 27% | dose-dependent tumor accumulation and long-time tumor retention | no substantial loss of body weight | significantly higher cytotoxicity against T24 cells than that of T-ATP | no impact | enhanced toxicity towards tumor cells (T24) than that of normal cells (SV-HUC-1) | no signs of histological deterioration or damage | typical ranges | no differences
4 | Cc1cn(CC(=O)NCCCC[C@H](NC(=O)c2cc3ccc(O)cc3oc2=O)C(=O)N[C@@H](CC(C)C)C(=O)N[C@H](C(=O)NCCOCCOCCOCCOCCOCCOCCOCCOCCC(=O)N[C@H](C(=O)N[C@@H](CCCCN)C(=O)N[C@@H](CCCNC(=N)N)C(=O)N[C@@H](CCCCN)C(=O)N[C@@H](CCCCN)C(=O)N[C@@H](CCCCN)C(=O)N2CCC[C@H]2C(=O)O)C(C)C)C(C)C)c(=O)[nH]c1=O [NLS-T, HCA-K(T)LV-PEG-VKRKKKP] ({Coumarin3carbonyl(7-OH)}-K(Acetyl(thymin-1-yl))LV[PEG8]VKRKKKP-OH) | 119 µM | 107 µM | 122 µM |  |  |  |  |  |  |  |  |  | 
